In PubChem BioAssay AID248 (DTP/NCI, 2004) one finds T/C data, which are given here for 18 molecules.

Values joined by “and” are separate entries in the source; they are usually repeats but may differ in a detail not shown here. Identical values can stand only once. Toxic doses and inconclusive results are not listed.

For this experiment, the system named is L1210 leukemia ip in BDF1 mice, survival T/C. Put plainly: NCI In Vivo Anticancer Drug Screen. Data for tumor model L1210 Leukemia (intraperitoneal) in B6D2F1 (BDF1) mice. As to conditions: endpoint: mean survival time, higher = longer survival. A digest of the protocol:
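Ratio derived from survival: compound-dosed mice over vehicle-dosed mice, all bearing a transplantable tumor.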

[1] abbreviates: dose: 100.0 mg/kg/injection, schedule: Q01DX009 (ip), vehicle: Klucel (hydroxypropylcellulose) (HPC).
Setting [2] is: dose: 200.0 mg/kg/injection, schedule: Q01DX009 (ip), vehicle: Klucel (hydroxypropylcellulose) (HPC).
Setting [3] is: dose: 400.0 mg/kg/injection, schedule: Q01DX009 (ip), vehicle: Klucel (hydroxypropylcellulose) (HPC).
Where [4] appears, read: dose: 100.0 mg/kg/injection, schedule: Q04DX003 (ip), vehicle: saline.
[5] abbreviates: dose: 200.0 mg/kg/injection, schedule: Q04DX003 (ip), vehicle: saline.
Setting [6] is: dose: 400.0 mg/kg/injection, schedule: Q04DX003 (ip), vehicle: saline.

Consider `COc1cccc2c1C(=O)c1c(O)c3c(c(O)c1C2=O)C[C@@](O)(/C(C)=N\NC(N)=O)C[C@@H]3OC1CC(N)C(O)C(C)O1` (some centres undefined), for which the T/C is, setting by setting: (dose: 1.5 mg/kg/injection, schedule: Q01DX009 (ip), vehicle: saline) 107 % of control; (dose: 2.0 mg/kg/injection, schedule: Q04DX003 (ip), vehicle: water) 110 % of control; (dose: 3.0 mg/kg/injection, schedule: Q01DX009 (ip), vehicle: saline) 112 % of control; (dose: 3.12 mg/kg/injection, schedule: Q01DX009 (ip), vehicle: saline) 113 % of control; (dose: 4.0 mg/kg/injection, schedule: Q04DX003 (ip), vehicle: water) 120 % of control; (dose: 6.0 mg/kg/injection, schedule: Q01DX009 (ip), vehicle: saline) 117 % of control. The T/C runs as follows: (dose: 6.25 mg/kg/injection, schedule: Q01DX009 (ip), vehicle: saline) 150 % of control; (dose: 8.0 mg/kg/injection, schedule: Q04DX003 (ip), vehicle: saline) 111 % of control; (dose: 12.5 mg/kg/injection, schedule: Q01DX009 (ip), vehicle: saline) 155 % of control; (dose: 12.5 mg/kg/injection, schedule: Q04DX003 (ip), vehicle: saline) 124 % of control; (dose: 24.0 mg/kg/injection, schedule: Q01DX009 (ip), vehicle: saline) 124 % of control; (dose: 50.0 mg/kg/injection, schedule: Q04DX003 (ip), vehicle: saline) 157 % of control. Moreover, the T/C is 105 % of control (dose: 125.0 micrograms/kg/injection, schedule: Q04DX003 (ip), vehicle: water); 107 % of control (dose: 250.0 micrograms/kg/injection, schedule: Q04DX003 (ip), vehicle: water); 108 % of control (dose: 500.0 micrograms/kg/injection, schedule: Q04DX003 (ip), vehicle: water); 107 % of control (dose: 1000.0 micrograms/kg/injection, schedule: Q04DX003 (ip), vehicle: water); 110 % of control (dose: 2000.0 micrograms/kg/injection, schedule: Q04DX003 (ip), vehicle: water).
With `NC(=O)c1cc(Cl)nc(Cl)n1`, the T/C is, setting by setting: (dose: 25.0 mg/kg/injection, schedule: Q01DX Z (ip), vehicle: methylcellulose (MC)) 98 % of control; (dose: 50.0 mg/kg/injection, schedule: Q01DX Z (ip), vehicle: methylcellulose (MC)) 96 % of control.
As for `CC(C)(C)NC(=O)Oc1ccc(-c2ccccc2)cc1Cl`, the T/C under setting [1] is 95 % of control, the T/C under setting [2] is 100 % of control and the T/C under setting [3] is 100 % of control.
Turning to `C/C(=N\NC(N)=S)c1ccccc1`, the T/C is, setting by setting: (dose: 5.0 mg/kg/injection, schedule: Q01DX009 (ip), vehicle: Klucel (hydroxypropylcellulose) (HPC)) 97 % of control; (dose: 5.0 mg/kg/injection, schedule: Q04DX003 (ip), vehicle: Klucel (hydroxypropylcellulose) (HPC)) 97 % of control; (dose: 10.0 mg/kg/injection, schedule: Q01DX009 (ip), vehicle: Klucel (hydroxypropylcellulose) (HPC)) 110 % of control; (dose: 10.0 mg/kg/injection, schedule: Q04DX003 (ip), vehicle: Klucel (hydroxypropylcellulose) (HPC)) 103 % of control; (dose: 20.0 mg/kg/injection, schedule: Q01DX009 (ip), vehicle: Klucel (hydroxypropylcellulose) (HPC)) 105 % of control; (dose: 20.0 mg/kg/injection, schedule: Q04DX003 (ip), vehicle: Klucel (hydroxypropylcellulose) (HPC)) 98 % of control and 117 % of control. Besides, the T/C (dose: 30.0 mg/kg/injection, schedule: Q04DX003 (ip), vehicle: Klucel (hydroxypropylcellulose) (HPC)) is 95 % of control and the T/C (dose: 40.0 mg/kg/injection, schedule: Q04DX003 (ip), vehicle: Klucel (hydroxypropylcellulose) (HPC)) was 120 % of control.
Regarding `NCCCN=C(N)C(N)=NCCCN`, the T/C runs as follows: under setting [4], 98 % of control; under setting [5], 95 % of control; under setting [6], 104 % of control.
In the case of `O=C1C(c2c[nH]c3ccccc23)=Nc2ccc(Br)cc21`, the T/C by setting is: (dose: 50.0 mg/kg/injection, schedule: Q01DX001 (ip), vehicle: saline) 104 % of control; (dose: 100.0 mg/kg/injection, schedule: Q01DX001 (ip), vehicle: saline) 104 % of control; (dose: 200.0 mg/kg/injection, schedule: Q01DX001 (ip), vehicle: saline) 106 % of control.
Take `CC(=O)c1cc2cc(Br)ccc2oc1=O`: the T/C under setting [1] was 98 % of control, the T/C under setting [2] is 88 % of control and the T/C under setting [3] is 96 % of control.
In the case of `CCC1=C(C)C(=O)Nc2c3ncnc-3ncn2C1O` (centres undefined), the T/C by setting is: (dose: 100.0 mg/kg/injection, schedule: Q01DX001 (ip), vehicle: saline with Tween-80) 100 % of control; (dose: 200.0 mg/kg/injection, schedule: Q01DX001 (ip), vehicle: saline with Tween-80) 105 % of control; (dose: 400.0 mg/kg/injection, schedule: Q01DX001 (ip), vehicle: saline with Tween-80) 103 % of control.
For the molecule `CCCc1cc(C)cc(N=Cc2ccccc2)c1O`, the T/C (dose: 100.0 mg/kg/injection, schedule: Q04DX003 (ip), vehicle: saline with Tween-80) was 101 % of control; the T/C (dose: 200.0 mg/kg/injection, schedule: Q04DX003 (ip), vehicle: saline with Tween-80) is 97 % of control; the T/C (dose: 400.0 mg/kg/injection, schedule: Q04DX003 (ip), vehicle: saline with Tween-80) is 98 % of control.
As to `CC(=O)N(C)c1ccc(NC(=O)/C=C/c2ccccc2)cc1`, the T/C was 95 % of control under setting [1], 101 % of control under setting [2] and 105 % of control under setting [3].
Regarding `[Cl][Pb]([Cl])([c]1ccccc1)[c]1ccccc1`, the T/C is 88 % of control (dose: 12.5 mg/kg/injection, schedule: Q04DX002 (ip), vehicle: Klucel (hydroxypropylcellulose) (HPC)); 88 % of control (dose: 25.0 mg/kg/injection, schedule: Q04DX002 (ip), vehicle: Klucel (hydroxypropylcellulose) (HPC)); 91 % of control (dose: 50.0 mg/kg/injection, schedule: Q04DX002 (ip), vehicle: Klucel (hydroxypropylcellulose) (HPC)).
In the case of `CN1OCC2CCCC(c3ccccc3)C21` (centres undefined), the T/C is 97 % of control (dose: 100.0 mg/kg/injection, schedule: Q04DX003 (ip), vehicle: Klucel (hydroxypropylcellulose) (HPC)) and 100 % of control (dose: 200.0 mg/kg/injection, schedule: Q04DX003 (ip), vehicle: Klucel (hydroxypropylcellulose) (HPC)).
Turning to `COc1cc(NCc2ccccc2)ccc1NC(C)=O`, the T/C is, setting by setting: (dose: 15.0 mg/kg/injection, schedule: Q01DX001 (ip), vehicle: carboxymethylcellulose (CMC)) 98 % of control; (dose: 30.0 mg/kg/injection, schedule: Q01DX001 (ip), vehicle: carboxymethylcellulose (CMC)) 110 % of control; (dose: 75.0 mg/kg/injection, schedule: Q01DX001 (ip), vehicle: carboxymethylcellulose (CMC)) 98 % of control.
In the case of `CCCCCCCCCCCCc1ccc(CSC(C(=O)OC)C(SCc2ccc(CCCCCCCCCCCC)cc2)C(=O)OC)cc1` (centres undefined), the T/C reads like this: under setting [4], 103 % of control; under setting [5], 101 % of control; under setting [6], 94 % of control.
On the same counts, the results for `Nc1ncnc(N)c1NC(=O)CCCCc1ccccc1` are 100 % of control, 92 % of control and 100 % of control.
For the molecule `Cc1cc(C)c(-c2c(C)cc(C)c([N+](=O)[O-])c2C)c(C)c1N`, the T/C was 100 % of control (dose: 75.0 mg/kg/injection, schedule: Q01DX009 (ip), vehicle: Klucel (hydroxypropylcellulose) (HPC)); 98 % of control (dose: 75.0 mg/kg/injection, schedule: Q04DX003 (ip), vehicle: Klucel (hydroxypropylcellulose) (HPC)); 105 % of control (dose: 150.0 mg/kg/injection, schedule: Q01DX009 (ip), vehicle: Klucel (hydroxypropylcellulose) (HPC)); 101 % of control (dose: 150.0 mg/kg/injection, schedule: Q04DX003 (ip), vehicle: Klucel (hydroxypropylcellulose) (HPC)); 100 % of control (dose: 300.0 mg/kg/injection, schedule: Q01DX009 (ip), vehicle: Klucel (hydroxypropylcellulose) (HPC)); 93 % of control (dose: 300.0 mg/kg/injection, schedule: Q04DX003 (ip), vehicle: Klucel (hydroxypropylcellulose) (HPC)).
For the molecule `Cc1cccc(OCC(O)CN2CCCCC2)c1` (centres undefined), the T/C is, setting by setting: (dose: 25.0 mg/kg/injection, schedule: Q01DX009 (ip), vehicle: saline) 94 % of control; (dose: 50.0 mg/kg/injection, schedule: Q01DX009 (ip), vehicle: saline) 102 % of control and 105 % of control; (dose: 100.0 mg/kg/injection, schedule: Q01DX009 (ip), vehicle: saline) 120 % of control.
As for `CCCCC#CC(=O)OC(C)CC` (centres undefined), the T/C was 104 % of control (dose: 100.0 mg/kg/injection, schedule: Q04DX002 (ip), vehicle: saline); 92 % of control (dose: 200.0 mg/kg/injection, schedule: Q04DX002 (ip), vehicle: saline); 101 % of control (dose: 400.0 mg/kg/injection, schedule: Q04DX002 (ip), vehicle: saline).
